Among the data in PubChem BioAssay AID248 (DTP/NCI, 2004) are T/C values, retold here.

Toxic doses and inconclusive results are not listed.

This test concerns L1210 leukemia ip in BDF1 mice, survival T/C. The test can be described thus: NCI In Vivo Anticancer Drug Screen. Data for tumor model L1210 Leukemia (intraperitoneal) in B6D2F1 (BDF1) mice. Conditions: endpoint: mean survival time, higher = longer survival. The procedure, abridged:
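Mice bearing the transplanted tumor received compound or vehicle. Survival of the treated group was divided by that of the vehicle-treated control group to give the ratio.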

Setting [1] is: dose: 50.0 mg/kg/injection, schedule: Q01DX001 (ip), vehicle: saline.
The mark [2] stands for this setting: dose: 100.0 mg/kg/injection, schedule: Q01DX001 (ip), vehicle: saline.
Where [3] appears, read: dose: 100.0 mg/kg/injection, schedule: Q01DX001 (ip), vehicle: carboxymethylcellulose (CMC).
[4] abbreviates: dose: 200.0 mg/kg/injection, schedule: Q01DX001 (ip), vehicle: carboxymethylcellulose (CMC).
Setting [5] is: dose: 400.0 mg/kg/injection, schedule: Q01DX001 (ip), vehicle: carboxymethylcellulose (CMC).
The mark [6] stands for this setting: dose: 100.0 mg/kg/injection, schedule: Q04DX003 (ip), vehicle: Klucel (hydroxypropylcellulose) (HPC).
Setting [7] is: dose: 200.0 mg/kg/injection, schedule: Q04DX003 (ip), vehicle: Klucel (hydroxypropylcellulose) (HPC).
The mark [8] stands for this setting: dose: 400.0 mg/kg/injection, schedule: Q04DX003 (ip), vehicle: Klucel (hydroxypropylcellulose) (HPC).
Where [9] appears, read: dose: 100.0 mg/kg/injection, schedule: Q01DX009 (ip), vehicle: saline with Tween-80.
Setting [10] is: dose: 200.0 mg/kg/injection, schedule: Q01DX009 (ip), vehicle: saline with Tween-80.
Setting [11] is: dose: 400.0 mg/kg/injection, schedule: Q01DX009 (ip), vehicle: saline with Tween-80.
[12] abbreviates: dose: 100.0 mg/kg/injection, schedule: Q01DX009 (ip), vehicle: Klucel (hydroxypropylcellulose) (HPC).
The mark [13] stands for this setting: dose: 200.0 mg/kg/injection, schedule: Q01DX009 (ip), vehicle: Klucel (hydroxypropylcellulose) (HPC).
[14] abbreviates: dose: 400.0 mg/kg/injection, schedule: Q01DX009 (ip), vehicle: Klucel (hydroxypropylcellulose) (HPC).
Where [15] appears, read: dose: 200.0 mg/kg/injection, schedule: Q04DX002 (ip), vehicle: Klucel (hydroxypropylcellulose) (HPC).
The mark [16] stands for this setting: dose: 400.0 mg/kg/injection, schedule: Q04DX002 (ip), vehicle: Klucel (hydroxypropylcellulose) (HPC).

For the compound `O=C(Nc1ccc(C2=NCCN2)cc1)Nc1cc(C(=O)Nc2ccc(C3=NCCN3)cc2)ccc1C(=O)Nc1ccc(C2=NCCN2)cc1`, the T/C was 107 % of control (dose: 7.5 mg/kg/injection, schedule: Q01DX Z (oral), vehicle: saline); 241 % of control (dose: 15.0 mg/kg/injection, schedule: Q01DX Z (ip), vehicle: saline); 105 % of control (dose: 15.0 mg/kg/injection, schedule: Q01DX Z (oral), vehicle: saline); 103 % of control (dose: 30.0 mg/kg/injection, schedule: Q01DX Z (oral), vehicle: saline); 102 % of control (dose: 60.0 mg/kg/injection, schedule: Q01DX Z (oral), vehicle: saline); 95 % of control (dose: 62.5 mg/kg/injection, schedule: Q01DX010 (oral), vehicle: saline). Further, the T/C was 95 % of control (dose: 75.0 mg/kg/injection, schedule: Q01DX Z (oral), vehicle: saline); 110 % of control (dose: 125.0 mg/kg/injection, schedule: Q01DX010 (oral), vehicle: saline); 108 % of control (dose: 250.0 mg/kg/injection, schedule: Q01DX010 (oral), vehicle: saline); 97 % of control (dose: 500.0 mg/kg/injection, schedule: Q01DX010 (oral), vehicle: saline).

In the case of `CC(C)(N)CC(=O)Oc1ccccc1`, the T/C is, setting by setting: (dose: 37.5 mg/kg/injection, schedule: Q04DX003 (ip), vehicle: saline) 97 % of control; (dose: 75.0 mg/kg/injection, schedule: Q01DX001 (ip), vehicle: saline) 104 % of control; (dose: 150.0 mg/kg/injection, schedule: Q01DX001 (ip), vehicle: saline) 101 % of control; (dose: 150.0 mg/kg/injection, schedule: Q04DX003 (ip), vehicle: saline) 92 % of control.

Regarding `NCCCC(=O)NCCCCCCNCCCCCCNC(=O)CCCN`, the T/C runs as follows: under setting [1], 98 % of control; under setting [2], 104 % of control.

As for `Cc1ccc(C(=O)OCC2OC3OC(C)(C)OC3C2OC(=O)c2ccc(C)cc2)cc1` (centres undefined), the T/C reads like this: under setting [3], 90 % of control; under setting [4], 104 % of control; under setting [5], 101 % of control.

For `COc1ccc(C(C#N)N2CCCCC2)cc1` (centres undefined), the T/C is, setting by setting: (dose: 25.0 mg/kg/injection, schedule: Q01DX009 (ip), vehicle: Klucel (hydroxypropylcellulose) (HPC)) 102 % of control; (dose: 50.0 mg/kg/injection, schedule: Q01DX009 (ip), vehicle: Klucel (hydroxypropylcellulose) (HPC)) 101 % of control; under setting [6], 95 % of control; under setting [7], 111 % of control; under setting [8], 101 % of control.

With `COc1ccc(Cc2cc3cc(OC)c(OC)cc3cn2)cc1OC`, the T/C under setting [9] was 103 % of control; the T/C (dose: 100.0 mg/kg/injection, schedule: Q04DX003 (ip), vehicle: saline with Tween-80) is 93 % of control; the T/C under setting [10] is 105 % of control; the T/C (dose: 200.0 mg/kg/injection, schedule: Q04DX003 (ip), vehicle: saline with Tween-80) was 104 % of control; the T/C under setting [11] was 121 % of control; the T/C (dose: 400.0 mg/kg/injection, schedule: Q04DX003 (ip), vehicle: saline with Tween-80) is 90 % of control.

Take `C(=N\Nc1nc2ccccc2s1)/c1ccc(/C=N/Nc2nc3ccccc3s2)cc1`: the T/C is 96 % of control under setting [12], 96 % of control under setting [13] and 104 % of control under setting [14].

Regarding `Nc1nc(N)c(C=Nc2ccc(I)cc2)c(Nc2ccc(I)cc2)n1`, the T/C (dose: 400.0 mg/kg/injection, schedule: Q01DX001 (ip), vehicle: alcohol) was 86 % of control.

Turning to `CCc1c(N)nc(N)[nH]c1=O`, the T/C was 102 % of control (dose: 44.0 mg/kg/injection, schedule: Q01DX001 (ip), vehicle: Klucel (hydroxypropylcellulose) (HPC)); 96 % of control (dose: 67.0 mg/kg/injection, schedule: Q01DX001 (ip), vehicle: Klucel (hydroxypropylcellulose) (HPC)); 98 % of control (dose: 100.0 mg/kg/injection, schedule: Q01DX001 (ip), vehicle: Klucel (hydroxypropylcellulose) (HPC)); 96 % of control (dose: 150.0 mg/kg/injection, schedule: Q01DX001 (ip), vehicle: Klucel (hydroxypropylcellulose) (HPC)); 104 % of control (dose: 200.0 mg/kg/injection, schedule: Q01DX001 (ip), vehicle: Klucel (hydroxypropylcellulose) (HPC)).

Turning to `CCn1c(C)nc2cc(Cl)c(Br)cc21`, the T/C is, setting by setting: (dose: 100.0 mg/kg/injection, schedule: Q04DX003 (ip), vehicle: saline) 107 % of control; (dose: 200.0 mg/kg/injection, schedule: Q04DX003 (ip), vehicle: saline) 110 % of control.

As to `CC(Cc1ccccc1)N(C)CC1C(=O)C2CCC1C2` (centres undefined), the T/C (dose: 75.0 mg/kg/injection, schedule: Q01DX001 (ip), vehicle: carboxymethylcellulose (CMC)) is 102 % of control; the T/C (dose: 150.0 mg/kg/injection, schedule: Q01DX001 (ip), vehicle: carboxymethylcellulose (CMC)) was 96 % of control; the T/C (dose: 300.0 mg/kg/injection, schedule: Q01DX001 (ip), vehicle: carboxymethylcellulose (CMC)) was 96 % of control.

`O=C(OCCOC(=O)c1cccc([N+](=O)[O-])c1)c1cccc([N+](=O)[O-])c1`: the T/C is 95 % of control (dose: 100.0 mg/kg/injection, schedule: Q01DX001 (ip), vehicle: other); 96 % of control (dose: 200.0 mg/kg/injection, schedule: Q01DX001 (ip), vehicle: other); 96 % of control (dose: 400.0 mg/kg/injection, schedule: Q01DX001 (ip), vehicle: other).

As to `O=S1(=O)N=C(Sc2ccccc2)c2ccccc21`, the T/C was 102 % of control (dose: 100.0 mg/kg/injection, schedule: Q04DX002 (ip), vehicle: saline with Tween-80); 98 % of control (dose: 200.0 mg/kg/injection, schedule: Q04DX002 (ip), vehicle: saline with Tween-80); 98 % of control (dose: 400.0 mg/kg/injection, schedule: Q04DX002 (ip), vehicle: saline with Tween-80).

With `COC(=O)C1(C)CCCC2(C)C3CCC4(C)CC3(CCO4)CCC12` (centres undefined), the T/C was 87 % of control under setting [15] and 95 % of control under setting [16].

In the case of `O=C(NCCCOc1ccc([N+](=O)[O-])cc1Cl)Nc1cccc(S(=O)(=O)F)c1`, the T/C reads like this: under setting [12], 92 % of control; under setting [6], 106 % of control; under setting [13], 98 % of control; under setting [7], 103 % of control; under setting [14], 103 % of control; under setting [8], 95 % of control.

As for `CCN(CC)Cc1ccccc1COC(=O)c1ccc(Br)cc1`, the T/C was 101 % of control (dose: 100.0 mg/kg/injection, schedule: Q04DX002 (ip), vehicle: Klucel (hydroxypropylcellulose) (HPC)); 108 % of control under setting [15]; 101 % of control under setting [16].

Consider `CCOP(=O)(OCC)C(c1ccccc1)C(c1ccccc1)c1ccccc1` (centres undefined), for which the T/C reads like this: (dose: 100.0 mg/kg/injection, schedule: Q04DX003 (ip), vehicle: other) 97 % of control; (dose: 200.0 mg/kg/injection, schedule: Q04DX003 (ip), vehicle: other) 93 % of control; (dose: 400.0 mg/kg/injection, schedule: Q04DX003 (ip), vehicle: other) 101 % of control.

For the compound `Cc1cccc(C)c1NC(=O)/C=C\C(=O)O`, the T/C under setting [6] is 98 % of control, the T/C under setting [7] was 91 % of control and the T/C under setting [8] was 94 % of control.

On to `Cc1ccc(S(=O)(=O)Oc2cc(C)ccc2C)cc1`, for which the T/C was 100 % of control under setting [9]; 97 % of control under setting [6]; 93 % of control under setting [10]; 92 % of control under setting [7]; 101 % of control under setting [11]; 91 % of control under setting [8].

Take `CCOC(=O)Nc1cc(NC(c2ccccc2)c2ccccc2)c([N+](=O)[O-])c(NC(=O)OCC)n1`: the T/C by setting is: under setting [3], 97 % of control; under setting [4], 92 % of control; under setting [5], 92 % of control.

As for `COS(=O)(=O)CCCCCC[N+](C)(C)C`, the T/C was 93 % of control under setting [1]; 102 % of control under setting [2]; 98 % of control (dose: 200.0 mg/kg/injection, schedule: Q01DX001 (ip), vehicle: saline).
